The supplement of paper PMC10307832

How the values were obtained:
Assay in all cases: relative viability (nuclei count vs DMSO), 5 days (fraction); higher = more cells survive
[1] = compound: CCC1=CN=CN=C1N2CCN(CC2)CC3=NC4=C(N3)C=C(C=C4)C(F)(F)F + C[C@@H](Oc1cc(-c2cnn(C3CCNCC3)c2)cnc1N)c1c(Cl)ccc(F)c1Cl [Crizotinib] (partner 1 µM)
In short: (§1)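 Each reported value is a median over duplicate plates. It expresses relative viability: treated-well nuclei count divided by vehicle-well nuclei count. Lung cancer cell lines in 1536-well plates were dosed by pin tool a day after seeding, alone with one drug or with a fixed anchor-drug dose plus five library-drug doses (not always all listed) in √10 steps, and nuclei were counted after 5 days.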

[2] = compound: CCn1c(-c2nonc2N)nc2cnc(Oc3cccc(NC(=O)c4ccc(OCCN5CCOCC5)cc4)c3)cc21 + CS(=O)(=O)CCNCc1ccc(-c2ccc3ncnc(Nc4ccc(OCc5cccc(F)c5)c(Cl)c4)c3c2)o1 [Lapatinib] (partner 2 µM)
In short: as §1

[3] = compound: CCC1=CN=CN=C1N2CCN(CC2)CC3=NC4=C(N3)C=C(C=C4)C(F)(F)F + CCNC(=O)c1noc(-c2cc(C(C)C)c(O)cc2O)c1-c1ccc(CN2CCOCC2)cc1 [Luminespib] (partner 0.01 µM)
In short: as §1

[4] = compound: CCC1=CN=CN=C1N2CCN(CC2)CC3=NC4=C(N3)C=C(C=C4)C(F)(F)F + NC(=O)Nc1cc(-c2cccc(F)c2)sc1C(=O)N[C@H]1CCCNC1 [AZD7762] (partner 0.2 µM)
In short: as §1

Cell Line	relative viability ([1]; first compound 0.04 µM)	relative viability ([1]; first compound 0.1265 µM)	relative viability ([1]; first compound 0.4 µM)	relative viability ([1]; first compound 1.265 µM)	relative viability ([1]; first compound 4 µM)	relative viability ([2]; first compound 0.04 µM)	relative viability ([2]; first compound 0.1265 µM)	relative viability ([2]; first compound 0.4 µM)	relative viability ([2]; first compound 1.265 µM)	relative viability ([2]; first compound 4 µM)	relative viability ([3]; first compound 0.04 µM)	relative viability ([3]; first compound 0.1265 µM)	relative viability ([3]; first compound 0.4 µM)	relative viability ([3]; first compound 1.265 µM)	relative viability ([3]; first compound 4 µM)	relative viability ([4]; first compound 0.04 µM)	relative viability ([4]; first compound 0.1265 µM)	relative viability ([4]; first compound 0.4 µM)	relative viability ([4]; first compound 4 µM)	relative viability ([4]; first compound 1.265 µM)
NCI-H1299	0.935	0.953	0.953	0.96	0.981	0.951	0.86	0.836	0.724	0.625	–	–	–	–	–	–	–	–	–	–
NCI-H1395	–	–	–	–	–	1.22	0.92	0.632	0.418	0.57	0.624	0.775	0.66	0.651	0.619	0.398	0.349	0.37	0.474	–
NCI-H2009	1.06	1.05	1.07	1.05	1.03	1.02	0.957	0.575	0.312	0.314	1.1	0.966	1.02	1.06	0.87	–	–	–	–	–
Calu-6	0.742	0.707	0.832	0.905	0.982	1.22	0.932	0.985	0.616	0.517	–	–	–	–	–	–	–	–	–	–
NCI-H1703	1.07	0.697	0.775	0.858	1.23	1.2	0.939	0.715	0.376	0.361	–	–	–	–	–	–	0.148	0.125	0.126	–
NCI-H1650	0.942	0.853	1.03	1.06	1.42	1.04	0.747	0.74	0.671	0.694	0.212	0.207	0.186	–	0.213	–	–	–	–	–
NCI-H2342	–	–	–	–	–	–	–	–	–	–	0.645	0.756	0.619	0.52	0.494	0.441	0.389	0.467	0.419	0.397
COR-L23	0.58	0.621	0.66	0.694	0.975	1.16	0.714	0.335	0.198	0.143	0.717	0.629	0.641	0.654	0.545	–	–	–	–	–
ChaGo-K-1	–	1.15	1.21	1.12	1.16	–	–	–	–	–	0.566	0.591	0.62	0.548	0.432	0.835	0.836	0.881	0.961	0.816
NCI-H1623	–	–	–	–	–	–	–	–	–	–	0.44	0.513	0.383	0.476	0.651	–	–	–	–	–
NCI-H661	0.996	0.943	0.964	0.951	1.1	0.47	0.457	0.457	0.39	0.385	0.968	0.935	0.885	0.872	0.783	–	–	–	–	–
SK-LU-1	1	1.1	0.99	1.06	1.02	1.24	0.662	0.611	0.493	0.449	0.205	0.203	0.213	0.178	0.213	–	–	–	–	–
